Results as given in patent US8415272B2, “Quinoline derivatives and their use as fungicides” (Syngenta Crop Protection LLC, priority 2008, dated 2013).

Tests used:
Plasmopara viticola = assay: Leaf disk assay, Plasmopara viticola (downy mildew of grapevine), preventive; assay type: in vivo; conditions: foliar, 168 h, grapevine leaf disks, assessed seven days after inoculation, read-out: control of fungal infection, Plasmopara viticola
Phytophthora infestans = assay: whole plant or invertebrate; assay type: in vivo; conditions: in Solanum lycopersicum, foliar, 96 h, read-out: control of fungal infection, Phytophthora infestans
Septoria nodorum = assay: Leaf disk assay, Septoria nodorum (wheat glume blotch), preventive; assay type: in vivo; conditions: Parastagonospora nodorum, foliar, 96 h, wheat leaf segments, assessed four days after inoculation, read-out: control of fungal infection, Septoria nodorum
Pyrenophora teres = assay: Leaf disk assay, Pyrenophora teres (barley net blotch), preventive; assay type: in vivo; conditions: foliar, 96 h, barley leaf segments, assessed four days after inoculation, read-out: control of fungal infection, Pyrenophora teres
Description: The compounds were tested in a leaf disk assay, with methods described below. The test compounds were dissolved in DMSO and diluted into water to 200 ppm. In the case of the test on Pythium ultimum, they were dissolved in DMSO and diluted into water to 20 ppm. Pyrenophora teres (barley net blotch): Barley leaf segments were placed on agar in a 24-well plate and sprayed with a solution of the test compound. After allowing to dry completely, for between 12 and 24 hours, the leaf disks were inoculated with a spore suspension of the fungus. After appropriate incubation the activity of a compound was assessed four days after inoculation as preventive fungicidal activity.

Septoria tritici = assay: Growth inhibition in nutrient broth, Septoria tritici (leaf blotch), photometric; assay type: cell-based; conditions: Zymoseptoria tritici, PDB broth, 24 C, 72 hrs, read-out: control of fungal infection, Septoria tritici
[1] = system: Erysiphe graminis f.sp. tritici; assay: Leaf disk assay, Erysiphe graminis f.sp. tritici (wheat powdery mildew), preventive; assay type: in vivo; conditions: Blumeria graminis, foliar, 96 h, wheat leaf segments, assessed four days after inoculation, read-out: control of fungal infection, Erysiphe graminis f.sp. tritici
Summary of the method: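 Wheat leaf segments on agar were sprayed with compound at 200 ppm (DMSO stock diluted in water). After 12–24 h drying they were inoculated with powdery mildew spores. Preventive activity was scored 4 days after inoculation.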

Fusarium culmorum = assay: Growth inhibition in nutrient broth, Fusarium culmorum (root rot), photometric; assay type: cell-based; conditions: 48 h, read-out: control of fungal infection, Fusarium culmorum
Summary of the method: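 Fusarium culmorum conidia in potato dextrose broth were added to compounds in DMSO. Plates were incubated at 24 C for 48 hrs, with growth inhibition read photometrically. […]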

[2] = system: Puccinia recondita f.sp. tritici; assay: Leaf disk assay, Puccinia recondita f.sp. tritici (wheat brown rust), preventive; assay type: in vivo; conditions: foliar, 216 h, wheat leaf segments, assessed nine days after inoculation, read-out: control of fungal infection, Puccinia recondita f.sp. tritici
Pythium ultimum = assay: Growth inhibition in potato dextrose broth, Pythium ultimum (damping off), photometric; assay type: cell-based; conditions: Globisporangium ultimum, 24° C., 48 hours, read-out: control of fungal infection, Pythium ultimum
Summary of the method: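 Growth inhibition was read photometrically at 48 hours after incubation at 24° C. Test compound was diluted from DMSO to 20 ppm in water and combined with potato dextrose broth seeded with Pythium ultimum mycelial fragments.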

C#Cc1cnc2c(Cl)cc(OC(SC)C(=O)NC(C)(C)C)cc2c1 (stereo not shown) [Example 18]
≥ 60%: pest or weed control at 200 ppm (Plasmopara viticola) | pest or weed control at 200 ppm (Phytophthora infestans) | pest or weed control at 200 ppm (Septoria nodorum) | pest or weed control at 200 ppm (Pyrenophora teres) | inhibition of growth at 60 ppm (Septoria tritici) | pest or weed control at 200 ppm [1] | inhibition of growth at 60 ppm (Fusarium culmorum) | pest or weed control at 200 ppm [2] | inhibition of growth at 20 ppm (Pythium ultimum)

C#Cc1cnc2ccc(OC(SC)C(=O)NC(C)(C)C#C)cc2c1 (stereo not shown) [Example 21]
≥ 60%: pest or weed control at 200 ppm (Plasmopara viticola) | pest or weed control at 200 ppm (Phytophthora infestans) | pest or weed control at 200 ppm (Septoria nodorum) | pest or weed control at 200 ppm (Pyrenophora teres) | inhibition of growth at 60 ppm (Septoria tritici) | pest or weed control at 200 ppm [1] | inhibition of growth at 60 ppm (Fusarium culmorum) | pest or weed control at 200 ppm [2] | inhibition of growth at 20 ppm (Pythium ultimum)

C#Cc1cnc2ccc(OC(SC)C(=O)NC(C)(C)C#CC)cc2c1 (stereo not shown) [Example 22]
≥ 60%: pest or weed control at 200 ppm (Plasmopara viticola) | pest or weed control at 200 ppm (Phytophthora infestans) | pest or weed control at 200 ppm (Septoria nodorum) | pest or weed control at 200 ppm (Pyrenophora teres) | inhibition of growth at 60 ppm (Septoria tritici) | pest or weed control at 200 ppm [1] | inhibition of growth at 60 ppm (Fusarium culmorum) | pest or weed control at 200 ppm [2] | inhibition of growth at 20 ppm (Pythium ultimum)

C#Cc1cnc2ccc(OC(SC)C(=O)NC(C)(C)C#CCOC)cc2c1 (stereo not shown) [Example 23]
≥ 60%: pest or weed control at 200 ppm (Plasmopara viticola) | pest or weed control at 200 ppm (Phytophthora infestans) | pest or weed control at 200 ppm (Septoria nodorum) | pest or weed control at 200 ppm (Pyrenophora teres) | inhibition of growth at 60 ppm (Septoria tritici) | pest or weed control at 200 ppm [1] | inhibition of growth at 60 ppm (Fusarium culmorum) | pest or weed control at 200 ppm [2] | inhibition of growth at 20 ppm (Pythium ultimum)

C#CCOCC#CC(C)(C)NC(=O)C(Oc1ccc2ncc(C#C)cc2c1)SC (stereo not shown) [Example 24]
≥ 60%: pest or weed control at 200 ppm (Plasmopara viticola) | pest or weed control at 200 ppm (Phytophthora infestans) | pest or weed control at 200 ppm (Septoria nodorum) | pest or weed control at 200 ppm (Pyrenophora teres) | inhibition of growth at 60 ppm (Septoria tritici) | pest or weed control at 200 ppm [1] | inhibition of growth at 60 ppm (Fusarium culmorum) | pest or weed control at 200 ppm [2] | inhibition of growth at 20 ppm (Pythium ultimum)

C#Cc1cnc2ccc(OC(SC)C(=O)NC(C)(C)COC)cc2c1 (stereo not shown) [Example 29]
≥ 60%: pest or weed control at 200 ppm (Plasmopara viticola) | pest or weed control at 200 ppm (Phytophthora infestans) | pest or weed control at 200 ppm (Septoria nodorum) | pest or weed control at 200 ppm (Pyrenophora teres) | inhibition of growth at 60 ppm (Septoria tritici) | pest or weed control at 200 ppm [1] | inhibition of growth at 60 ppm (Fusarium culmorum) | pest or weed control at 200 ppm [2] | inhibition of growth at 20 ppm (Pythium ultimum)

C#Cc1cnc2c(C)cc(OC(SC)C(=O)NC(C)(C)CF)cc2c1 (stereo not shown) [Example 93]
≥ 60%: pest or weed control at 200 ppm (Plasmopara viticola) | pest or weed control at 200 ppm (Phytophthora infestans) | pest or weed control at 200 ppm (Septoria nodorum) | pest or weed control at 200 ppm (Pyrenophora teres) | inhibition of growth at 60 ppm (Septoria tritici) | pest or weed control at 200 ppm [1] | inhibition of growth at 60 ppm (Fusarium culmorum) | pest or weed control at 200 ppm [2] | inhibition of growth at 20 ppm (Pythium ultimum)

C#Cc1cnc2ccc(OC(SC)C(=O)NC(C)(C)CC)cc2c1 (stereo not shown) [Example 94]
≥ 60%: pest or weed control at 200 ppm (Plasmopara viticola) | pest or weed control at 200 ppm (Phytophthora infestans) | pest or weed control at 200 ppm (Septoria nodorum) | pest or weed control at 200 ppm (Pyrenophora teres) | inhibition of growth at 60 ppm (Septoria tritici) | pest or weed control at 200 ppm [1] | inhibition of growth at 60 ppm (Fusarium culmorum) | pest or weed control at 200 ppm [2] | inhibition of growth at 20 ppm (Pythium ultimum)

C#Cc1cnc2ccc(OC(SC)C(=O)NC(C)(C)CF)cc2c1 (stereo not shown) [Example 99]
≥ 60%: pest or weed control at 200 ppm (Plasmopara viticola) | pest or weed control at 200 ppm (Phytophthora infestans) | pest or weed control at 200 ppm (Septoria nodorum) | pest or weed control at 200 ppm (Pyrenophora teres) | inhibition of growth at 60 ppm (Septoria tritici) | pest or weed control at 200 ppm [1] | inhibition of growth at 60 ppm (Fusarium culmorum) | pest or weed control at 200 ppm [2]

C#Cc1cnc2cc(F)c(OC(SC)C(=O)NC(C)(C)C)cc2c1 (stereo not shown) [Example 104]
≥ 60%: pest or weed control at 200 ppm (Plasmopara viticola) | pest or weed control at 200 ppm (Phytophthora infestans) | pest or weed control at 200 ppm (Septoria nodorum) | pest or weed control at 200 ppm (Pyrenophora teres) | inhibition of growth at 60 ppm (Septoria tritici) | pest or weed control at 200 ppm [1] | inhibition of growth at 60 ppm (Fusarium culmorum) | pest or weed control at 200 ppm [2] | inhibition of growth at 20 ppm (Pythium ultimum)

C#Cc1cnc2cc(F)c(OC(SC)C(=O)NC(C)(C)C#C)cc2c1 (stereo not shown) [Example 106]
≥ 60%: pest or weed control at 200 ppm (Plasmopara viticola) | pest or weed control at 200 ppm (Phytophthora infestans) | pest or weed control at 200 ppm (Septoria nodorum) | pest or weed control at 200 ppm (Pyrenophora teres) | inhibition of growth at 60 ppm (Septoria tritici) | pest or weed control at 200 ppm [1] | inhibition of growth at 60 ppm (Fusarium culmorum) | pest or weed control at 200 ppm [2] | inhibition of growth at 20 ppm (Pythium ultimum)

C#Cc1cnc2cc(F)c(OC(SC)C(=O)NC(C)(C)COC)cc2c1 (stereo not shown) [Example 108]
≥ 60%: pest or weed control at 200 ppm (Plasmopara viticola) | pest or weed control at 200 ppm (Phytophthora infestans) | pest or weed control at 200 ppm (Septoria nodorum) | pest or weed control at 200 ppm (Pyrenophora teres) | inhibition of growth at 60 ppm (Septoria tritici) | pest or weed control at 200 ppm [1] | inhibition of growth at 60 ppm (Fusarium culmorum) | pest or weed control at 200 ppm [2]

C#CCOCC(C)(C)NC(=O)C(Oc1cc2cc(C#C)cnc2cc1F)SC (stereo not shown) [Example 109]
≥ 60%: pest or weed control at 200 ppm (Plasmopara viticola) | pest or weed control at 200 ppm (Phytophthora infestans) | pest or weed control at 200 ppm (Septoria nodorum) | pest or weed control at 200 ppm (Pyrenophora teres) | inhibition of growth at 60 ppm (Septoria tritici) | pest or weed control at 200 ppm [1] | inhibition of growth at 60 ppm (Fusarium culmorum) | pest or weed control at 200 ppm [2]

C#Cc1cnc2c(C)cc(OC(CC)C(=O)NC(C)(C)C#C)cc2c1 (stereo not shown) [Example 114]
≥ 60%: pest or weed control at 200 ppm (Plasmopara viticola) | pest or weed control at 200 ppm (Phytophthora infestans) | pest or weed control at 200 ppm (Septoria nodorum) | pest or weed control at 200 ppm (Pyrenophora teres) | inhibition of growth at 60 ppm (Septoria tritici) | pest or weed control at 200 ppm [1] | inhibition of growth at 60 ppm (Fusarium culmorum) | pest or weed control at 200 ppm [2]

C#Cc1cnc2c(C)cc(OC(CC)C(=O)NC(C)(C)C)cc2c1 (stereo not shown) [Example 115]
≥ 60%: pest or weed control at 200 ppm (Plasmopara viticola) | pest or weed control at 200 ppm (Phytophthora infestans) | pest or weed control at 200 ppm (Septoria nodorum) | pest or weed control at 200 ppm (Pyrenophora teres) | inhibition of growth at 60 ppm (Septoria tritici) | pest or weed control at 200 ppm [1] | inhibition of growth at 60 ppm (Fusarium culmorum) | pest or weed control at 200 ppm [2]

C#Cc1cnc2c(Cl)cc(OC(SC)C(=O)NC(C)(C)C#CCC)cc2c1 (stereo not shown) [Example 122]
≥ 60%: pest or weed control at 200 ppm (Plasmopara viticola) | pest or weed control at 200 ppm (Phytophthora infestans) | pest or weed control at 200 ppm (Septoria nodorum) | pest or weed control at 200 ppm (Pyrenophora teres) | inhibition of growth at 60 ppm (Septoria tritici) | pest or weed control at 200 ppm [1] | pest or weed control at 200 ppm [2] | inhibition of growth at 20 ppm (Pythium ultimum)

C#Cc1cnc2ccc(OC(SC)C(=O)NC(C)(C#C)COC)cc2c1 (stereo not shown) [Example 129]
≥ 60%: pest or weed control at 200 ppm (Plasmopara viticola) | pest or weed control at 200 ppm (Phytophthora infestans) | pest or weed control at 200 ppm (Septoria nodorum) | pest or weed control at 200 ppm (Pyrenophora teres) | inhibition of growth at 60 ppm (Septoria tritici) | pest or weed control at 200 ppm [1] | pest or weed control at 200 ppm [2] | inhibition of growth at 20 ppm (Pythium ultimum)

C#Cc1cnc2c(C)cc(OC(SC)C(=O)NC(C)(C#C)COC)cc2c1 (stereo not shown) [Example 135]
≥ 60%: pest or weed control at 200 ppm (Plasmopara viticola) | pest or weed control at 200 ppm (Phytophthora infestans) | pest or weed control at 200 ppm (Septoria nodorum) | pest or weed control at 200 ppm (Pyrenophora teres) | inhibition of growth at 60 ppm (Septoria tritici) | pest or weed control at 200 ppm [1] | pest or weed control at 200 ppm [2] | inhibition of growth at 20 ppm (Pythium ultimum)

CSC(Oc1ccc2ncc(C#CCF)cc2c1)C(=O)NC(C)(C)C (stereo not shown) [Example 144]
≥ 60%: pest or weed control at 200 ppm (Plasmopara viticola) | pest or weed control at 200 ppm (Phytophthora infestans) | pest or weed control at 200 ppm (Septoria nodorum) | pest or weed control at 200 ppm (Pyrenophora teres) | inhibition of growth at 60 ppm (Septoria tritici) | pest or weed control at 200 ppm [1] | inhibition of growth at 60 ppm (Fusarium culmorum) | inhibition of growth at 20 ppm (Pythium ultimum)

C#Cc1cnc2ccc(OC(SC)C(=O)NC3(C)CCC3)cc2c1 (stereo not shown) [Example 202]
≥ 60%: pest or weed control at 200 ppm (Plasmopara viticola) | pest or weed control at 200 ppm (Phytophthora infestans) | pest or weed control at 200 ppm (Septoria nodorum) | pest or weed control at 200 ppm (Pyrenophora teres) | inhibition of growth at 60 ppm (Septoria tritici) | pest or weed control at 200 ppm [1] | pest or weed control at 200 ppm [2] | inhibition of growth at 20 ppm (Pythium ultimum)

C#Cc1cnc2c(Cl)cc(OC(SC)C(=O)NC3(C)CCC3)cc2c1 (stereo not shown) [Example 203]
≥ 60%: pest or weed control at 200 ppm (Plasmopara viticola) | pest or weed control at 200 ppm (Phytophthora infestans) | pest or weed control at 200 ppm (Septoria nodorum) | pest or weed control at 200 ppm (Pyrenophora teres) | inhibition of growth at 60 ppm (Septoria tritici) | pest or weed control at 200 ppm [1] | pest or weed control at 200 ppm [2] | inhibition of growth at 20 ppm (Pythium ultimum)
